Measurements taken from PMC9151520 (Archives of Toxicology, 2022).
Several values for one entry are separate records, joined by “and”; a condition that tells them apart may be missing. Equal entries are not always repeated. Where two headings read alike, the source gives them in different places.

What was measured:
[1] = test system: p53 signaling (p53RE-bla HCT-116 cells)
[2] = test system: p53 signaling (p53RE-bla HCT-116 cells); experiment: cells; type: cell-based
[3] = test system: p53 signaling (p53RE-bla HCT-116 cells); remark: listed apart in the source
[4] = Homo sapiens, HCT-116, read-out: p53 activation EC50, cherry pick confirmation
[5] = Homo sapiens, HCT-116, read-out: p53 activation EC50, primary screening
[6] = Homo sapiens, HCT-116, read-out: p53 activation efficacy, cherry pick confirmation
[7] = Homo sapiens, HCT-116, read-out: p53 activation efficacy, primary screening
[8] = read-out: Viability EC50, cherry pick confirmation
[9] = read-out: p53 activation EC50, cherry pick confirmation
[10] = read-out: p53 activation EC50, primary screening
[11] = Homo sapiens, HCT-116, read-out: EC50, p53 activation, primary screening
[12] = Homo sapiens, HCT-116, read-out: Efficacy, p53 activation, primary screening

C/C=C(/C(=C/C)c1ccc(O)cc1)c1ccc(O)cc1 [Dienestrol]
7.79 µM: EC50 [2, 4]
inactive: p53 activation EC50, cherry pick confirmation [1] | p53 activation EC50, primary screening [1] | p53 activation efficacy, cherry pick confirmation [1] | p53 activation efficacy, primary screening [1] | Viability EC50, cherry pick confirmation (p53RE-bla HCT-116 cells) | Viability EC50, primary screening (p53RE-bla HCT-116 cells) | Viability efficacy, cherry pick confirmation (p53RE-bla HCT-116 cells) | Viability efficacy, primary screening (p53RE-bla HCT-116 cells) | p53 activation EC50, cherry pick confirmation [3] | p53 activation EC50, primary screening [3] | p53 activation efficacy, cherry pick confirmation [3] | p53 activation efficacy, primary screening [3]
32.6%: Emax [2, 7]
36.1%: Emax [2, 6]
7.81 µM: EC50 [2, 5]

Nc1nc(Cl)nc2c1ncn2[C@@H]1O[C@H](CO)[C@@H](O)[C@@H]1F [Clofarabine]
0.138 µM: EC50 [2, 5]
84.9%: Emax [2, 6]
inactive: p53 activation EC50, cherry pick confirmation [1] | p53 activation EC50, primary screening [1] | p53 activation efficacy, cherry pick confirmation [1] | p53 activation efficacy, primary screening [1] | Viability EC50, cherry pick confirmation (p53RE-bla HCT-116 cells) | Viability EC50, primary screening (p53RE-bla HCT-116 cells) | Viability efficacy, cherry pick confirmation (p53RE-bla HCT-116 cells) | Viability efficacy, primary screening (p53RE-bla HCT-116 cells) | p53 activation EC50, cherry pick confirmation [3] | p53 activation EC50, primary screening [3] | p53 activation efficacy, cherry pick confirmation [3] | p53 activation efficacy, primary screening [3]
0.335 µM: EC50 [2, 4]
93.3%: Emax [2, 7]

CNC(=O)c1ccccc1Sc1ccc2c(/C=C/c3ccccn3)n[nH]c2c1 [Axitinib]
56%: Emax [2, 6]
1.41 µM: EC50 [2, 5]
inactive: p53 activation EC50, cherry pick confirmation [1] | p53 activation EC50, primary screening [1] | p53 activation efficacy, cherry pick confirmation [1] | p53 activation efficacy, primary screening [1] | Viability EC50, cherry pick confirmation (p53RE-bla HCT-116 cells) | Viability EC50, primary screening (p53RE-bla HCT-116 cells) | Viability efficacy, cherry pick confirmation (p53RE-bla HCT-116 cells) | Viability efficacy, primary screening (p53RE-bla HCT-116 cells) | p53 activation EC50, cherry pick confirmation [3] | p53 activation EC50, primary screening [3] | p53 activation efficacy, cherry pick confirmation [3] | p53 activation efficacy, primary screening [3]
83.4%: Emax [2, 7]

N=C1NC(=N)c2cc3ccccc3cc21 [1,3-Diiminobenz(f)isoindoline]
inactive: p53 activation EC50 [1] | Viability EC50 (p53RE-bla HCT-116 cells) | p53 activation EC50 [3]
115.412 and 121.93: p53 activation efficacy [2]
23.7 µM and 25.2 µM: EC50 ([2]; read-out: p53 activation EC50)

Nc1cnn([C@@H]2O[C@H](CO)[C@@H](O)[C@H]2O)c(=O)n1 [6-Azacytidine]
56.623: Efficacy, p53 activation, primary screening [2]
inactive: EC50, p53 activation, cherry pick confirmation [1] | EC50, p53 activation, primary screening [1] | Efficacy, p53 activation, cherry pick confirmation [1] | Efficacy, p53 activation, primary screening [1] | EC50, viability, cherry pick confirmation (p53RE-bla HCT-116 cells) | EC50, viability, primary screening (p53RE-bla HCT-116 cells) | Efficacy, viability, cherry pick confirmation (p53RE-bla HCT-116 cells) | Efficacy, viability, primary screening (p53RE-bla HCT-116 cells) | EC50, p53 activation, cherry pick confirmation [3] | EC50, p53 activation, primary screening [3] | Efficacy, p53 activation, cherry pick confirmation [3] | Efficacy, p53 activation, primary screening [3]
68.68: Efficacy, p53 activation, cherry pick confirmation [2]
1.1 µM: EC50 ([2]; read-out: EC50, p53 activation, cherry pick confirmation)
0.807 µM: EC50 ([2]; read-out: EC50, p53 activation, primary screening)

CC(=O)[O][Sn]([c]1ccccc1)([c]1ccccc1)[c]1ccccc1 [Triphenyltin acetate]
inactive: p53 activation EC50, cherry pick confirmation [1] | p53 activation EC50, primary screening [1] | p53 activation efficacy, cherry pick confirmation [1] | p53 activation efficacy, primary screening [1] | p53 activation EC50, cherry pick confirmation [3] | p53 activation EC50, primary screening [3] | p53 activation efficacy, cherry pick confirmation [3] | p53 activation efficacy, primary screening [3]
67.021: p53 activation efficacy, cherry pick confirmation [2]
86.4573: p53 activation efficacy, primary screening [2]
22 µM: EC50 [2, 10]
5.39 µM and 7.79 µM and 6.43 µM: EC50 (p53RE-bla HCT-116 cells; read-out: Viability EC50, primary screening)
5.01 µM and 5.33 µM and 6.71 µM: EC50 (p53RE-bla HCT-116 cells; [8])
14.4 µM: EC50 [2, 9]

[F][Sn]([c]1ccccc1)([c]1ccccc1)[c]1ccccc1 [Triphenyltin fluoride]
17.8 µM: EC50 [2, 9]
39.9627: p53 activation efficacy, primary screening [2]
73.0027: p53 activation efficacy, cherry pick confirmation [2]
7.69 µM: EC50 [2, 10]
3.63 µM and 5.54 µM and 3.92 µM: EC50 (p53RE-bla HCT-116 cells; [8])
inactive: p53 activation EC50, cherry pick confirmation [1] | p53 activation EC50, primary screening [1] | p53 activation efficacy, cherry pick confirmation [1] | p53 activation efficacy, primary screening [1] | p53 activation EC50, cherry pick confirmation [3] | p53 activation EC50, primary screening [3] | p53 activation efficacy, cherry pick confirmation [3] | p53 activation efficacy, primary screening [3]

COC1=CC(=O)C[C@@H](C)[C@]12Oc1c(Cl)c(OC)cc(OC)c1C2=O [Griseofulvin]
41.2%: Emax [2, 12]
inactive: EC50, p53 activation, cherry pick confirmation [1] | EC50, p53 activation, primary screening [1] | Efficacy, p53 activation, cherry pick confirmation [1] | Efficacy, p53 activation, primary screening [1] | EC50, viability, cherry pick confirmation (p53RE-bla HCT-116 cells) | EC50, viability, primary screening (p53RE-bla HCT-116 cells) | Efficacy, viability, cherry pick confirmation (p53RE-bla HCT-116 cells) | Efficacy, viability, primary screening (p53RE-bla HCT-116 cells) | EC50, p53 activation, cherry pick confirmation [2] | Efficacy, p53 activation, cherry pick confirmation [2] | EC50, p53 activation, cherry pick confirmation [3] | EC50, p53 activation, primary screening [3] | Efficacy, p53 activation, cherry pick confirmation [3] | Efficacy, p53 activation, primary screening [3]
36.3 µM: EC50 [2, 11]

C[C@H]1O[C@@H](n2cc(F)c(=O)[nH]c2=O)[C@H](O)[C@@H]1O [Doxifluridine]
83.9%: Emax [2, 12]
10.6 µM: EC50 [2, 11]
inactive: EC50, p53 activation, cherry pick confirmation [1] | EC50, p53 activation, primary screening [1] | Efficacy, p53 activation, cherry pick confirmation [1] | Efficacy, p53 activation, primary screening [1] | EC50, viability, cherry pick confirmation (p53RE-bla HCT-116 cells) | EC50, viability, primary screening (p53RE-bla HCT-116 cells) | Efficacy, viability, cherry pick confirmation (p53RE-bla HCT-116 cells) | Efficacy, viability, primary screening (p53RE-bla HCT-116 cells) | EC50, p53 activation, cherry pick confirmation [2] | Efficacy, p53 activation, cherry pick confirmation [2] | EC50, p53 activation, cherry pick confirmation [3] | EC50, p53 activation, primary screening [3] | Efficacy, p53 activation, cherry pick confirmation [3] | Efficacy, p53 activation, primary screening [3]

CCN(CC)c1ccc2c(C)cc(=O)oc2c1 [7-Diethylamino-4-methylcoumarin]
13 µM and 25.2 µM: EC50 ([2]; read-out: p53 activation EC50, No MS)
41.1 µM: EC50 ([1]; read-out: p53 activation EC50, HLM)
inactive: p53 activation EC50, HLM [1] | Viability EC50, HLM (p53RE-bla HCT-116 cells) | Viability EC50, No MS (p53RE-bla HCT-116 cells) | Viability EC50, RLM (p53RE-bla HCT-116 cells) | Viability Efficacy, HLM (p53RE-bla HCT-116 cells) | Viability Efficacy, No MS (p53RE-bla HCT-116 cells) | Viability Efficacy, RLM (p53RE-bla HCT-116 cells) | p53 activation EC50, RLM [3] | p53 activation Efficacy, RLM [3]

Cc1ccc([N+](=O)[O-])c(C)c1 [1,3-Dimethyl-4-nitrobenzene]
inactive: p53 activation EC50, cherry pick confirmation [1] | p53 activation efficacy, cherry pick confirmation [1] | Viability EC50, cherry pick confirmation (p53RE-bla HCT-116 cells) | Viability EC50, primary screening (p53RE-bla HCT-116 cells) | Viability efficacy, cherry pick confirmation (p53RE-bla HCT-116 cells) | Viability efficacy, primary screening (p53RE-bla HCT-116 cells) | p53 activation EC50, cherry pick confirmation [2] | p53 activation EC50, primary screening [2] | p53 activation efficacy, cherry pick confirmation [2] | p53 activation efficacy, primary screening [2] | p53 activation EC50, cherry pick confirmation [3] | p53 activation efficacy, cherry pick confirmation [3]

CC[n+]1c(-c2ccccc2)c2cc(N)ccc2c2ccc(N)cc21 [Ethidium bromide]
4.43 µM: EC50 [2, 5]
5.41 µM: EC50 [2, 4]
inactive: p53 activation EC50, cherry pick confirmation [1] | p53 activation EC50, primary screening [1] | p53 activation efficacy, cherry pick confirmation [1] | p53 activation efficacy, primary screening [1] | Viability EC50, cherry pick confirmation (p53RE-bla HCT-116 cells) | Viability EC50, primary screening (p53RE-bla HCT-116 cells) | Viability efficacy, cherry pick confirmation (p53RE-bla HCT-116 cells) | Viability efficacy, primary screening (p53RE-bla HCT-116 cells) | p53 activation EC50, cherry pick confirmation [3] | p53 activation EC50, primary screening [3] | p53 activation efficacy, cherry pick confirmation [3] | p53 activation efficacy, primary screening [3]
176%: Emax [2, 6]
182%: Emax [2, 7]

Oc1ccc(-c2ccc(O)cc2)cc1 [4,4'-Biphenyldiol]
48.2%: Emax [2, 12]
35.4 µM: EC50 [2, 11]
inactive: EC50, p53 activation, cherry pick confirmation [1] | EC50, p53 activation, primary screening [1] | Efficacy, p53 activation, cherry pick confirmation [1] | Efficacy, p53 activation, primary screening [1] | EC50, viability, cherry pick confirmation (p53RE-bla HCT-116 cells) | EC50, viability, primary screening (p53RE-bla HCT-116 cells) | Efficacy, viability, cherry pick confirmation (p53RE-bla HCT-116 cells) | Efficacy, viability, primary screening (p53RE-bla HCT-116 cells) | EC50, p53 activation, cherry pick confirmation [2] | Efficacy, p53 activation, cherry pick confirmation [2] | EC50, p53 activation, cherry pick confirmation [3] | EC50, p53 activation, primary screening [3] | Efficacy, p53 activation, cherry pick confirmation [3] | Efficacy, p53 activation, primary screening [3]
